PMC10046907 (Current Issues in Molecular Biology, 2023)
Read-outs that look alike come from different tables or passages of the source.

Legend:
ERK phosphorylation = assay: Western blot of p-ERK in influenza-infected MDCK cells; format: cell-based, canine; details: 10 h; for viral-infection-induced ERK phosphorylation: 20 μM
A/PR/8/34 (H1N1) [1] = assay: in vitro; details: dog, SI (selective index, CC50/IC50)
influenza vRNA (NP gene) = format: cell-based, influenza virus
A/PR/8/34 (H1N1) [2] = assay: microbe, parasite or virus in culture; details: Influenza A virus, MDCK, 72 h
[3] = system: phosphorylation of MEK1/2; assay: Western blot of p-MEK1/2 in influenza-infected MDCK cells; format: cell-based, canine; details: 20 μM, 10 h, all strains
[4] = system: influenza RNP export from the nucleus to the cytoplasm; assay: Confocal fluorescence imaging of influenza RNP nuclear export; format: cell-based, influenza virus (H1N1); details: 20 μM, H1N1-infected MDCK cells, 10 h
Experimental: MDCK cells were grown on a chamber slide, pre-coated with poly-L-lysine, and the monolayers were infected with influenza virus at 0.001 MOI for 1 h. The virus was removed and replaced by EMEM containing 10 μg/mL trypsin and each compound under test. All cells were cultured for 10 h at 37 °C in a 5% CO2 atmosphere and fixed in 4% paraformaldehyde solution for 15 min at room temperature. After washing, the cells were incubated at 37 °C for 1 h with an FITC-conjugated nucleoprotein (NP)-specific monoclonal antibody against influenza virus (Millipore, MA, USA) diluted at 1:50. After washing with PBS, cells were counterstained with 500 nM propidium iodide solution. Slides were mounted using the SlowFade Gold antifade reagent (Invitrogen, CA, USA). Confocal fluorescence imaging was performed using the Carl Zeiss LSM 510 META confocal microscope (Carl Zeiss Inc., Jena, Germany).
Figure 3 18-Hydroxyferruginol (1) and 18-oxoferruginol (2) inhibit the export of the influenza virus RNP complex from the nucleus to the cytoplasm. MDCK cells were infected with H1N1 at 0.001 MOI in the presence of 0.5% DMSO, 50 μM LY294002, 20 μM 18-hydroxyferruginol (1), or 20 μM 18-oxoferruginol (2). After 10 h, the cells were fixed in 4% paraformaldehyde. After blocking, the cells were incubated with the anti-NP antibody (green). Propidium iodide was used as a nuclear counterstain (red). Scale bar = 10 µm.

[5] = molecular target: neuraminidase from A/Chicken/Korea/MS96/96 (H9N2) (Influenza A virus (A/Chicken/Korea/MS96/96(H9N2)), UniProt Q9J458); format: biochemical, influenza A viruses; details: read-out: Neuraminiase IC50
p-Akt (Serine 473) = assay: Western blot of p-Akt in influenza-infected MDCK cells; format: cell-based, canine; details: 20 μM, after viral infection, vs viral-infected/untreated cells
[6] = system: A/Chicken/Korea/MS96/96 (H9N2); assay: in vitro; details: dog, SI (selective index, CC50/IC50)
influenza vRNA (M gene) = format: cell-based, influenza virus; details: 20 μM, all virus strains, at 12 and 18 h, vs infected/untreated cells (0.5% DMSO)
A/PR/8/34 (H1N1) [7] = details: dog
[8] = system: A/Chicken/Korea/MS96/96 (H9N2); details: dog
influenza virus NS1 = format: cell-based
[9] = molecular target: neuraminidase from A/PR/8/34 (H1N1) (Influenza A virus, UniProt P03468); assay: biochemical; design: species or system influenza A viruses
influenza virus NP = format: cell-based
[10] = system: A/Chicken/Korea/MS96/96 (H9N2); assay: microbe, parasite or virus in culture; details: Influenza A virus, H9N2, MDCK, in Gallus gallus, 72 h
in vitro = details: dog
A/Hong Kong/8/68 (H3N2) [11] = assay: in vitro; details: dog, SI (selective index, CC50/IC50)
A/Hong Kong/8/68 (H3N2) [12] = assay: microbe, parasite or virus in culture; details: Influenza A virus, H3N2, MDCK, 72 h
A/Hong Kong/8/68 (H3N2) [13] = details: dog
[14] = 20 μM, all three strains, 10 h after infection

neuraminidase from A/PR/8/34 (H1N1), sequence (P03468 whole entry, looked up): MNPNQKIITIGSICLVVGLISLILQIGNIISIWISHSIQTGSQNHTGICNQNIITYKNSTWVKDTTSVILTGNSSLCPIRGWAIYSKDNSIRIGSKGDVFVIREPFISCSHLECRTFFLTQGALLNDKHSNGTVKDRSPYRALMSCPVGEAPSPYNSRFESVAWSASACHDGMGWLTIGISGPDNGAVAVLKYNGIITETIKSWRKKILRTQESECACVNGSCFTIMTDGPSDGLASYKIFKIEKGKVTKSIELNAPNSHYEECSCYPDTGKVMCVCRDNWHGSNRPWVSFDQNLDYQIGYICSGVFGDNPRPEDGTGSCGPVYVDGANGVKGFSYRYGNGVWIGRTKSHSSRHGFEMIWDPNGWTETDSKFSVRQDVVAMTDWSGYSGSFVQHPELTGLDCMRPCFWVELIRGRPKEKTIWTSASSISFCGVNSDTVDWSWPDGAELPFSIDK

Row | Structure (SMILES) | viral-infection-induced ERK phosphorylation (ERK phosphorylation) | selectivity ratio (A/PR/8/34 (H1N1) [1]) | reduction of influenza vRNA levels (NP gene) (influenza vRNA (NP gene); [14]) | IC50 (A/PR/8/34 (H1N1) [2]) [µM] | toxic effect on MDCK cells (MDCK cells) | phosphorylation of MEK1/2 induced by infection [3] | influenza RNP export from the nucleus to the cytoplasm [4] | IC50 [5] [µM] | p-Akt levels (p-Akt (Serine 473)) | selectivity ratio [6] | decrease of influenza vRNA levels (M gene) (influenza vRNA (M gene)) | SI (selective index, CC50/IC50) (A/PR/8/34 (H1N1) [7]) | SI (selective index, CC50/IC50) [8] | accumulation of viral protein NS1 (influenza virus NS1) | IC50 [9] [µM] | levels of influenza virus NP (influenza virus NP) | IC50 [10] [µM] | CC50 (in vitro) [µM] | IC50 (A/Hong Kong/8/68 (H3N2) [12]) [µM] | further results
1 | CC(C)c1cc2c(cc1O)[C@@]1(C)CCC[C@@](C)(CO)[C@@H]1CC2 [Compound 1, 18-hydroxyferruginol] | inhibited viral-infection-induced ERK phosphorylation | 1.68 | 2–2.5 fold | 13.6 ± 1.4 | no toxic effect | inhibited | reduction in influenza RNP export from the nucleus to the cytoplasm | 82.2 | decreased p-Akt levels | 1.79 | 65.3–91.6% | 2.61 | 2.77 | markedly decreased | > 100 | reduction in the levels of influenza virus NP | 12.8 ± 0.1 | 35.5 ± 0.4 | – | –
2 | CC(C)c1cc2c(cc1O)[C@@]1(C)CCC[C@@](C)(C=O)[C@@H]1CC2 [Compound 2, 18-oxoferruginol] | inhibited viral-infection-induced ERK phosphorylation | 2.13 | 2–3 fold | 18.3 ± 6.5 | no toxic effect | inhibited | reduction in influenza RNP export from the nucleus to the cytoplasm | > 100 | decreased p-Akt levels | 3.6 | 60.7–92.4% | 2.25 | 3.81 | markedly decreased | > 100 | reduction in the levels of influenza virus NP | 10.8 ± 2.2 | 41.2 ± 1.5 | 29.2 ± 1.9 | selectivity ratio (A/Hong Kong/8/68 (H3N2) [11]): 1.33; SI (selective index, CC50/IC50) (A/Hong Kong/8/68 (H3N2) [13]): 1.41
3 | O=c1cc(N2CCOCC2)oc2c(-c3ccccc3)cccc12 [LY294002, reference compound] | – | – | – | – | – | – | – | – | – | – | – | – | – | – | – | – | – | – | – | ERK phosphorylation (ERK phosphorylation; 50 μM): strongly inhibited ERK phosphorylation; reduction of influenza vRNA levels (NP gene) (influenza vRNA (NP gene); 50 μM, all three strains, 10 h after infection): 3.3–5.2 fold
4 | CCOC(=O)C1=C[C@@H](OC(CC)CC)[C@H](NC(C)=O)[C@@H](N)C1 [Olseltamivir, oseltamivir, reference compound] | – | – | – | 1.35 ± 1.2 | – | – | – | – | – | – | – | – | – | – | – | – | < 0.7 | > 500 | 1.09 ± 0.5 | –
5 | COc1cccc(-c2cc(=O)c3ccccc3o2)c1N [PD98059, reference compound] | – | – | – | – | – | – | – | – | – | – | – | – | – | – | – | – | – | – | – | reduction of influenza vRNA levels (NP gene) (influenza vRNA (NP gene)): 4.3–9.1 fold
